Measurements from patent US11744273B2, “Sweetness enhancing volatile compositions and methods of increasing perceived sweetness of a comestible” (University of Florida Research Foundation, Inc., priority 2016, dated 2023).

Tested on: perceived sweetness intensity
Assay: Strawberry consumer panel; initial multiple regression of volatiles against perceived sweetness intensity independent of glucose, fructose or sucrose (Table 5)
Assay type: in vivo, human
Settings: for relation to sweetness intensity independent of sugars: initial step-wise multiple regression; for FRUCTOSE t RATIO / GLUCOSE t RATIO / SUCROSE t RATIO: standard least squares; for FRUCTOSE t RATIO: sweetness intensity independent of fructose; for GLUCOSE t RATIO: sweetness intensity independent of glucose; for SUCROSE t RATIO: sweetness intensity independent of sucrose
Method: Step-wise multiple regressions of all volatile compounds against perceived intensity of sweetness is performed independent of either glucose, fructose, or sucrose concentration, separately (Table 5).
At least 100 grams or seven berries of each sample were removed from 4° C. dark overnight storage prior to volatile collection. Samples were homogenized in a blender prior to splitting into three 15 gram replicates for immediate capturing of volatile emission and remainder of sample frozen in N2 (I) and stored at −80° C. for later sugar and acid quantification.
Oven temperatures programmed from 40° C. (0.5 min hold) at 5° C. min^−1 to 250° C. (4 min hold). Signals captured with a flame ionization detector (FID) at 280° C. Peaks from FID signal were integrated manually with Chemstation B.04.01 software (Agilent Technologies, Santa Clara, Calif.). Volatile emission (ng gFW^−1 h^−1) calculated based on individual peak area relative to sample elution standard peak area.
All consumer panels were approved by the University of Florida Institutional Review Board. […] Ages of panelist ranged from 18 to 71, with a median age of 24. Panelists self-classified themselves as 98 White or Caucasian, 11 Black or African-American, 1 Native American, Alaska Native or Aleutian, 41 Asian/Pacific Islander, and 15 Other. […] Fresh, fully-ripe strawberry fruit was removed from overnight 4° C. dark storage and allowed to warm to room temperature prior to sensory analysis. Each panelist was given one to two whole strawberries for evaluation, depending on cultivar availability. Panelist took a bite of each sample, chewed, and swallowed it. Ratings for overall liking and liking for texture were scaled on hedonic general labeled magnitude scale (gLMS) in the context of all pleasure/displeasure experiences. […] Scales were employed to mediate valid comparisons across subjects and sessions.
For the first analysis, individual volatile compound concentrations were regressed using the “enter” method in SPSS Statistics (IBM Corp, Armonk, N.Y., USA).

SMILES | relation to sweetness intensity independent of sugars | FRUCTOSE t RATIO | GLUCOSE t RATIO | SUCROSE t RATIO
C=CC(=O)CC [1-penten-3-one] | enhance sweetness intensity | – | – | –
CCCCCC=O [66-25-1] | – | 1.229 | 1.178 | 0.21
CCCCCO [71-41-0] | – | 0.448 | 0.296 | 1.938
CCCCC(=O)C(C)=O [96-04-8] | – | 0.142 | 0.002 | −0.646
CCC(=O)CC [96-22-0] | – | 1.82 | 1.576 | 0.912
CCCCC(CC)COC(C)=O (stereo not drawn) [103-09-3] | – | 0.172 | 0.21 | −1.053
CCCCC(CC)CO (stereo not drawn) [104-76-7] | – | 1.189 | 0.982 | 2.046
CCOC(=O)CC [105-37-3] | – | −0.623 | −0.674 | 1.964
CCCOC(=O)CCC [105-66-8] | – | 0.88 | 0.638 | 2.421
CCCCCCCC(=O)OCC [106-32-1, ethyl octanoate] | negatively related to sweetness | – | – | –
CC(=O)CC(C)C [108-10-1, 4-Methyl-2-pentanone] | negatively related to sweetness | – | – | –
CCCCOC(=O)CC(C)C [109-19-3] | – | 2.005 | 1.954 | 1.662
CCCCOC(=O)CCC [109-21-7] | – | 2.181 | 1.961 | 1.65
CCCOC(C)=O [109-60-4] | – | −0.491 | −0.454 | −0.224
CCCCCCCCCC(=O)OCC [110-38-3] | – | 0.281 | 0.055 | 2.621
CCCCCCCCOC(=O)CCC [110-39-4] | – | 0.96 | 0.814 | 2.645
CCCCC=O [110-62-3] | – | −0.572 | −0.568 | 0.997
CCCCCCC=O [111-71-7] | – | 2.599 | 2.283 | 1.342
CCCCCCCCOC(C)=O [112-14-1] | – | 0.413 | 0.284 | 2.292
CCCCCC(=O)OCC [123-66-0] | – | 0.066 | −0.001 | 1.064
CC(=O)OCCC(C)C [123-92-2] | – | −0.725 | −0.771 | 0.108
CCCCCCCC=O [124-13-0] | – | 0.871 | 0.685 | 0.169

SMILES | relation to sweetness intensity independent of sugars | FRUCTOSE t RATIO | GLUCOSE t RATIO | SUCROSE t RATIO
CCCCCCCCC=O [124-19-6] | – | 3.696 | 3.402 | 0.226
Cc1cc(C(C)(C)C)c(O)c(C(C)(C)C)c1 [128-37-0] | – | −0.856 | −1.17 | 0.482
COC(=O)c1ccccc1N [134-20-3] | – | −0.009 | 0.2 | 1.386
CC(=O)OCc1ccccc1 [140-11-4] | – | −0.361 | −0.513 | −1.357
CCCCC(=O)OCC [539-82-2] | – | −0.48 | −0.802 | 2.273
CCCCCOC(=O)CCC [540-18-1, pentyl butyrate] | enhance sweetness intensity | – | – | –
CC1(C)C2CC=C(C=O)C1C2 (stereo not drawn) [564-94-3] | – | 2.588 | 2.455 | −1.322
CCCC(=O)CC [589-38-8] | – | −0.217 | −0.427 | 0.592
CCCCC(C)=O [591-78-6] | – | 2.807 | 2.788 | 0.767
C=CC(O)CC (stereo not drawn) [616-25-1] | – | 1.773 | 1.628 | 0.795
C/C=C/C(=O)OC [623-43-8] | – | 0.248 | 0.54 | −1.396
CCCCC(=O)OC [624-24-8] | – | −0.406 | −0.416 | 0.662
CCC(C)COC(C)=O (stereo not drawn) [624-41-9] | – | −0.433 | −0.494 | −1.323
CCCCCOC(C)=O [628-63-7] | – | 0.882 | 0.749 | 0.427
CCCCCCC1CCC(=O)O1 (stereo not drawn) [706-14-9] | – | 1.247 | 0.879 | 1.65
CCC/C=C/CO [928-95-0] | – | −1.842 | −1.521 | −0.516
CSC(C)=O [1534-08-3] | – | 0.488 | 0.429 | 1.035
CC/C=C\C=O [1576-86-9] | – | 4.16 | 3.915 | 0.935
CC/C=C/C=O [1576-87-0] | – | 4.566 | 4.301 | 1.024
CCCCCCCCC1CCC(=O)O1 (stereo not drawn) [2305-05-7, 5-octyldihydro-2(3H)-furanone] | enhance sweetness intensity | – | – | –
CCCCCC(=O)OC(C)C [2311-46-8] | – | 0.238 | −0.058 | 2.211
CCCC(=O)SC [2432-51-1] | – | −0.956 | −1.092 | 2.033

SMILES | relation to sweetness intensity independent of sugars | FRUCTOSE t RATIO | GLUCOSE t RATIO | SUCROSE t RATIO
CCC/C=C/COC(C)=O [2497-18-9] | – | −0.313 | −0.331 | −0.056
CCCCC/C=C/C=O [2548-87-0] | – | 1.76 | 1.509 | 0.067
CCCCCCOC(=O)CCC [2639-63-6, hexyl butyrate] | enhance sweetness intensity | – | – | –
CCCCCCC/C=C/C=O [3913-81-3] | – | 3.694 | 3.494 | 1.411
CCCCCCCCOC(=O)CCCCC [4887-30-3] | – | 0.392 | 0.254 | 2.71
CCCCCCCCCCOC(=O)CCC [5454-09-1] | – | 1.804 | 1.579 | 2.085
CCCCCC(CC)CC [5881-17-4] | – | 2.894 | 2.662 | 0.608
C=C[C@]1(C)CC[C@H](C(C)(C)O)O1 [5989-33-3] | – | 1.869 | 1.561 | 1.953
CCOC(=O)C(C)CC (stereo not drawn) [7452-79-1] | – | 1.959 | 1.993 | −0.785
CCCCCCCCOC(=O)CC(C)C [7786-58-5] | – | 0.362 | 0.227 | 2.027
CCCCCCCCCOC(=O)C(C)C [10522-34-6] | – | 0.536 | 0.288 | 2.049
C=C(C)C1CC=C(COC(C)=O)CC1 (stereo not drawn) [15111-96-3] | – | 0.23 | 0.192 | 0.927
CCCCC/C=C\C=O [20664-46-4] | – | −0.17 | −0.395 | 1.383
CCC(O)C(=O)OC (stereo not drawn) [29674-47-3] | – | 1.339 | 1.362 | 0.035
CCCCCCCCOC(=O)C(C)CC (stereo not drawn) [29811-50-5] | – | 0.016 | −0.098 | 0.358
C=CC(C)(O)CC/C=C(\C)CCC=C(C)C (stereo not drawn) [40716-66-3] | – | 1.521 | 1.202 | 1
CC=C(C)C(=O)OCC [55514-48-2] | – | −0.644 | −0.675 | −0.889
CCCC(=O)OC(C)CCC (stereo not drawn) [60415-61-4, 2-pentanyl butyrate] | enhance sweetness intensity | – | – | –
CCCCCCOC(C)=O [hexyl acetate] | enhance sweetness intensity | – | – | –
CC(=O)OCC=C(C)C [prenyl acetate, 3-methyl-2-buten-1-yl acetate] | negatively related to sweetness | – | – | –
